Source: patent US20240398783A1, “Compounds and Pharmaceutical Compositions Comprising Inhibitors of Amyloid Peptide Interactions with Glycosaminoglycans, Methods of Treatment and Use Thereof” (Gismo Therapeutics, Inc., priority 2021, published 2024)
pIC50: −log10 of the molar value. Counter-ions that a name gives are not always drawn.

Target: T1, Amyloid-beta(1-42) oligomer binding to heparin (HS-GAG) (Homo sapiens, UniProt P05067)
T1 construct: Beta-amyloid (1-42) was purchased from rPeptide (Cat. No. A1163); purchased rPeptide A1163
Assay: Inhibition of Amyloid-beta(1-42) oligomer binding to immobilized heparin-BSA (ELISA)
Set-up: species or system porcine
Conditions: Abeta(1-42) oligomers, co-incubation on heparin-BSA plates; read-out: Abeta42/Heparin Activity (IC-50)
Experimental: Porcine intestinal mucosa heparin conjugated to Bovine Serum Albumin (Heparin-BSA) was prepared as described (Najjam, S. et al. 1997, Cytokine 12, 1013-1022). Heparin is a sulfated HS-GAG and is commonly used as a HS-GAG in biochemical and binding assays (Lindahl, U. and Kjellen, L. (2013) ibid). Heparin-BSA at 0.01 mg/ml in Phosphate Buffered Saline (PBS; pH 7.4) was added to a 96 well polystyrene ELISA plate (NUNC Cat. No. 449824; 100 μl per well) and incubated Over Night (ON) at 4 degrees Celsius. For negative controls, ELISA plates were coated with BSA instead of Heparin-BSA, using the same procedure. Following the incubation, the plate was washed consecutively, by immersion, with de-ionized water and PBS (pH 7.4). The ELISA plate was then blocked with nonfat milk (2%, 200 μl per well) for 2 hours at Room Temperature (RT) with gentle shaking. Following blocking, the plate was washed with de-ionized water then PBS (pH 7.4). GBAPs were dissolved and diluted in PBS (pH 6.5, supplemented with 0.1% BSA) at desired concentrations, added to the ELISA plates containing immobilized Heparin-BSA (100 μl per well) and incubated for 2 hours at RT with gentle shaking. Following incubation, the plate was washed with de-ionized water and three times with PBS (pH 6.5) plus Tween. Bound GBAP was detected by a monoclonal antibody specific for that GBAP, followed by incubation with secondary antibody conjugated to horseradish peroxidase (HRP). Antibody was diluted in PBS (pH 6.5 supplemented with 1% BSA). Following each incubation with antibody, the plate was washed with de-ionized water and three times with PBS (pH 6.5) wash buffer containing 0.1% Tween. The peroxidase substrate chromogen, TMB (Dako Cat. No. S1599) was added (100 μl per well) to the ELISA plate and incubated at room temperature. After 5 minutes ELISA Stop Solution (hydrochloric acid 1N, sulfuric acid 3N) was added (100 μl per well) to stop the peroxidase catalyzed colorimetric reaction. The Optical Density of the samples was measured at 450 nm using an ELISA plate reader (BioTek Synergy H1). Following color development, the % inhibition compared to control (BSA-coated plates) was determined. IC-50s were calculated using GraphPad Prism software.
The assay was performed as described in Example 43, with the following modifications. Following to coating the plates with Heparin-BSA, plates were washed as described. The compounds were dissolved in DMSO at 10 mM final concentration and further diluted prior to assay. DMSO concentration in the screening well was up to 2%. Individual compounds were co-incubated with Beta-amyloid peptides on plates containing immobilized heparin. Beta-amyloid (1-42) was purchased from rPeptide (Cat. No. A1163) and used to prepare oligomers according to Stine et al., 2003 (J Biol Chem. 278(13):11612-22) as follows. 1,1,1,3,3,3-Hexafluoro-2-propanol- (HFIP; Sigma Cat. No. 105228)-treated Beta amyloid (1-42) was dissolved in dry DMSO (Sigma Cat. No. D2650) to 5 mM concentration. Dissolved Beta amyloid (1-42) was then diluted to 100 μM in ice-cold cell culture medium (phenol red-free Ham's F-12; Caisson Labs, Cat. No. HFL05), followed immediately by vortexing for 30 seconds, and incubating at 4 degrees Celsius for 24 h. Resulting Beta amyloid (1-42) oligomers were centrifuged at 12,000 rpm for 10 min at 4 degree Celsius to remove aggregates. Oligomers were then quickly frozen and kept in aliquots at −80 degrees Celsius. Beta-amyloid (1-40) from rPeptide (Cat No. A1153) was dissolved in DMSO, quickly frozen and kept in aliquots at −80 degrees Celsius. Beta-amyloid (1-42) oligomers or Beta-amyloid (1-40) diluted in PBS (pH 6.5, supplemented with BSA, 0.1%) were added to the ELISA plate (100 μl per well) and incubated for 2 hours at RT with gentle shaking. Following the incubation, the plate was washed with de-ionized water and three times with PBS (pH 6.5) plus Tween. […]

T1 sequence (P05067 672-713): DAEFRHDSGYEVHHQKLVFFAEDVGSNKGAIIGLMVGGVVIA

SMILES	pIC50
Cc1ncn(-c2ccc(/C=N\Nc3ncnc4cc(Cl)ccc34)cn2)c1C [Compound 15, 7-chloro-4-(2-((6-(4,5-dimethyl-1H-imidazol-1-yl)pyridin-3-yl)methylene)hydrazineyl)quinazoline hydrochloride]	4.72
Fc1cc(/C=N/Nc2ccnc3cc(Cl)ccc23)ccc1-n1ccnc1 [Compound 35, (E)-7-chloro-4-(2-(3-fluoro-4-(1H-imidazol-1-yl)benzylidene)hydrazineyl)quinoline hydrochloride]	4.81
